Measured values: ChEMBL document CHEMBL5126661, “Experimental and Computational Studies on the Biotransformation of Pseudopyronines with Human Cytochrome P450 CYP4F2” (2022)

Columns and labels:
Type in all cases: functional
[1] = test system: Streptococcus mutans; assay: Antibacterial activity against Streptococcus mutans ATCC25175 assessed as inhibition of bacterial growth by broth microdilution method
[2] = test system: Staphylococcus aureus; assay: Antibacterial activity against Staphylococcus aureus ATCC12600 assessed as inhibition of bacterial growth by broth microdilution method
[3] = test system: Staphylococcus epidermidis; assay: Antibacterial activity against Staphylococcus epidermidis ATCC14990 assessed as inhibition of bacterial growth by broth microdilution method
[4] = test system: Moraxella catarrhalis; assay: Antibacterial activity against Moraxella catarrhalis ATCC25238 assessed as inhibition of bacterial growth by broth microdilution method

Measured: MIC

CCCCCCCc1cc(O)c(CCCCCC)c(=O)o1 [PSEUDOPYRONINES B]
2.1 µg/mL: all assays above
